# Experimental data taken from ChEMBL document CHEMBL1795225, “Flavonoids as inhibitors of human CD38” (Bioorg Med Chem Lett, 2011).
# Biological target: T1, ADP-ribosyl cyclase/cyclic ADP-ribose hydrolase 1 (Homo sapiens, UniProt P28907)
# T1 sequence (P28907 whole entry): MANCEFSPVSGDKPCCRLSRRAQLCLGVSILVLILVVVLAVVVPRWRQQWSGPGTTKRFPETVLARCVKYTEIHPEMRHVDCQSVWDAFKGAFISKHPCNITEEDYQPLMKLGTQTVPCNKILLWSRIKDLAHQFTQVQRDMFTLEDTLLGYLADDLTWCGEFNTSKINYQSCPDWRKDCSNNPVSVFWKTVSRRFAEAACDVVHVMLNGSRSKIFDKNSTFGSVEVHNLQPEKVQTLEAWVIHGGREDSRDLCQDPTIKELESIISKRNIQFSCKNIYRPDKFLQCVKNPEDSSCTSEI
# Assay: Inhibition of human CD38 using 20 uM 1, N6-etheno NAD+ as substrate by continuous fluorimetric method
row,IC50 [µM],SMILES
1,> 100,Oc1ccc(/C=C/c2cc(O)cc(O)c2)cc1 [RESVERATROL]
2,6,Oc1cc(O)c2ccc(-c3ccc(O)c(O)c3)[o+]c2c1 [LUTEOLINIDIN]
3,16.3,Oc1ccc(-c2[o+]c3cc(O)cc(O)c3cc2O)cc1 [PELARGONIDIN]
4,14.6,Oc1cc(O)c2cc(O)c(-c3cc(O)c(O)c(O)c3)[o+]c2c1 [DELPHINIDIN]
5,> 100,Oc1cc(O)cc(/C=C/c2ccc(O)c(O)c2)c1 [PICEATANNOL]
6,21.8,Oc1cc(O)c2cc(O)c(-c3ccc(O)c(O)c3)[o+]c2c1 [CYANIDIN]
7,6.3,OC[C@H]1O[C@@H](Oc2cc3c(O)cc(O)cc3[o+]c2-c2ccc(O)c(O)c2)[C@H](O)[C@@H](O)[C@@H]1O [KUROMANIN]
8,37.9,O=c1c(O)c(-c2cc(O)c(O)c(O)c2)oc2cc(O)ccc12 [ROBINETIN]
9,70.3,Oc1ccc2cc(O)c(-c3ccc(O)c(O)c3)[o+]c2c1 [FISETINIDIN]
10,39.2,COc1cc(-c2[o+]c3cc(O)cc(O)c3cc2O)cc(O)c1O [PETUNIDIN]
11,48.6,O=c1c(O)c(-c2ccc(O)c(O)c2)oc2cc(O)c(O)c(O)c12 [QUERCETAGETIN]
12,14.2,Oc1ccc(-c2[o+]c3cc(O)c(O)c(O)c3cc2O)cc1O
13,32.1,COc1ccc(-c2ccc3c(O)cc(O)cc3[o+]2)cc1O [DIOSMETINIDIN]

row,SMILES,IC50 [µM]
1,O=c1cc(-c2ccc(O)c(O)c2)oc2cc(O)cc(O)c12 [LUTEOLIN],8.2
2,COc1cc(-c2[o+]c3cc(O)cc(O)c3cc2O)cc(OC)c1O [MALVIDIN],17
3,O=c1c(O)c(-c2cc(O)c(O)c(O)c2)oc2cc(O)cc(O)c12 [MYRICETIN],24.8
4,Oc1cc(O)c2c(c1)OC(c1ccc(O)c(O)c1)C(O)C2 (racemic) [CATECHIN],> 100
5,O=c1c(O)c(-c2ccc(O)c(O)c2)oc2cc(O)cc(O)c12 [QUERCETIN],37.9
